From patent publication US20050288488A1, “Ah receptor cDNA and genetically engineered cells for detecting agonists to the Ah receptor” (Northwestern University, priority 1993, published 2005)
pEC50, pKd: −log10 of the molar value.

Experiments:
[1] = target: T1, AHR-LexA chimera (UniProt P0A7C2+P30561); assay type: cell-based; conditions: for induction of lac Z activity over background: yeast GRS4 chimeric AHR-LexA system, average
T1 construct: expressed in transfected cells; host or cells: Saccharomyces cerevisiae strain GRS4 (with pTT8/hsp82) transformed with pEGAHRNΔ166 and pSH18-34
Description: Poon, D., Schroeder, S., Wang, C. […] Biol. 11, 4809-4821. […] (1 minute) then 50° C. (1 minute) and then 72° C. (1 minute) for 25 cycles.
β-Galactosidase assays carried out on the AHR-LexANΔ166 chimera system were performed as above except for the following changes. Yeast strains were grown from a single colony overnight at 30° C. in 2 ml of selection medium containing either 2% glucose or 2% galactose as a carbon source. Fifty microliters of this primary culture was used to inoculate a 1-ml culture of the same media containing appropriate concentrations of agonist dissolved in Me2SO. The culture was grown for 16-18 hours with vigorous shaking at room temperature. β-Galactosidase activity was determined by adding a 50-μl aliquot of the cultures to 650 μl of Z-buffer, permeabilizing the cells, and incubating with ONPG at 30° C. for 30 minutes. β-Galactosidase units were determined using the following formula: (A420)/(A600 of 1/10 dilution of cells×volume of culture×length of incubation))×1000.
As described above, strain GRS4 was transformed with a AHR-LexAN 166 fusion plasmid, pEGAHRNΔ166 containing the chimeric Ah receptor and a LexA operator reporter plasmid pSH18-34. In this system, expression of the reporter gene was dependent on pEGAHRNΔ166 expresson and on the presence of agonist. […] The dose-response curves obtained from this chimeric receptor system closely paralleled those of the complete AHR/ARNT/DRE pathway expressed in A303 cells.

[2] = target: full-length human AHR (Homo sapiens, UniProt P35869, F659I); conditions: for activation of the AHR over background (β-galactosidase): yeast A303 AHR/ARNT/DRE system, average of at least three independent experiments
Description: S. cerevisiae strain A303 (Mata, ura3-52, trpIΔI, his3Δ200, leu2Δ1) was used as a host to transform the AHR, ARNT, and the lacZ reporter gene driven by two DREs. […] To construct the pCWhuAHR, the full-length human AHR was excised from plasmid phμAHR2, (See Dolwick, K. M., Schmidt, J. V., Carrer, L. A., Swanson, H. I., and Bradfield, C. A. (1993) Mol. Pharmacol. 44, 911-917), with XmaI and cloned into the corresponding site of pCW10. pY2ARNT was constructed by digesting plasmid pBM5/NEO-M1-1 with BamHI and subcloning the ARNT fragment into the corresponding site of the expression vector pYPGE2, a 2 μ, TRP1-marked plasmid containing a phosphoglycerate kinase promoter to drive expression. […] The reporter plasmid pDRE23-Z was constructed by first subcloning the HindIII/EcoRI fragment of pGEMLS3.2, (See Denison, M. S., Fisher, J. M., and Whitlock, J. P. J. (1988) Proc. Natl. Acad. Sci. U.S.A. 85, 2528-2532), containing DRE2-DRE3 into pBluescriptSK (Stratagene) to generate pSKDRE23. The DRE2-DRE3 fragment was subsequently amplified by polymerase chain reaction from pSKDRE23 using 50 pmol of primers OL146 (5′-[sequence]-3′ SEQUENCE ID NO. 24) and OL290 (5′-[sequence]-3′ SEQUENCE ID NO. 25) in a 50-μl reaction containing 200 μm each dNTP, 2 mM MgCl2 10 mm Tris, 50 mM KCl, 0.001% gelatin (w\v). The reaction was incubated at 95° C. for 5 minutes, then 72° C. for 5 minutes during which 2.5 units of Taq polymerases were added and the reaction continued at 95° C. (1 minute) then 50° C. (1 minute) and then 72° C. (1 minute) for 25 cycles.
Plasmids were sequentially transformed into the appropriate yeast strain by electroporation, (See Becker, D. M., and Guarente, L. (1991) Methods of Enzymol. 194, 182-187), or by a modified LiAc method (See Schiestl, R. H., and Giest, R. D. (1989) Curr. Genet. 16, 339-346). For electroporation, 100-500 ng of plasmid DNA was added to 50 μl or electrocompetent cells and incubated on ice for 5 minutes.

[3] = tested on: AHR; conditions: reported, Knutson and Poland (1981); read-out: AHR binding constants (KD values); cited from earlier work
[4] = target: T2, human Ah-receptor (Homo sapiens, UniProt P35869, F659I); experiment: photoaffinity labeling with [125I]-2-azido-3-iodo-7,8-dibromodibenzo-p-dioxin, competition by agonist; assay type: binding; conditions: excess of β-naphthoflavone; human cDNA expressed in COS-1 cells, cytosolic fraction
T2 construct: 102 nucleotides downstream of the stop codon of the full length human Ah-receptor cDNA clone; expressed in transfected cells; host or cells: COS-1 cells electroporated with phuAhR (cytosol, 10 mM molybdate); also in vitro translation in TNT rabbit reticulocyte lysate (Promega)
T2 sequence (P35869 11-848 F659I): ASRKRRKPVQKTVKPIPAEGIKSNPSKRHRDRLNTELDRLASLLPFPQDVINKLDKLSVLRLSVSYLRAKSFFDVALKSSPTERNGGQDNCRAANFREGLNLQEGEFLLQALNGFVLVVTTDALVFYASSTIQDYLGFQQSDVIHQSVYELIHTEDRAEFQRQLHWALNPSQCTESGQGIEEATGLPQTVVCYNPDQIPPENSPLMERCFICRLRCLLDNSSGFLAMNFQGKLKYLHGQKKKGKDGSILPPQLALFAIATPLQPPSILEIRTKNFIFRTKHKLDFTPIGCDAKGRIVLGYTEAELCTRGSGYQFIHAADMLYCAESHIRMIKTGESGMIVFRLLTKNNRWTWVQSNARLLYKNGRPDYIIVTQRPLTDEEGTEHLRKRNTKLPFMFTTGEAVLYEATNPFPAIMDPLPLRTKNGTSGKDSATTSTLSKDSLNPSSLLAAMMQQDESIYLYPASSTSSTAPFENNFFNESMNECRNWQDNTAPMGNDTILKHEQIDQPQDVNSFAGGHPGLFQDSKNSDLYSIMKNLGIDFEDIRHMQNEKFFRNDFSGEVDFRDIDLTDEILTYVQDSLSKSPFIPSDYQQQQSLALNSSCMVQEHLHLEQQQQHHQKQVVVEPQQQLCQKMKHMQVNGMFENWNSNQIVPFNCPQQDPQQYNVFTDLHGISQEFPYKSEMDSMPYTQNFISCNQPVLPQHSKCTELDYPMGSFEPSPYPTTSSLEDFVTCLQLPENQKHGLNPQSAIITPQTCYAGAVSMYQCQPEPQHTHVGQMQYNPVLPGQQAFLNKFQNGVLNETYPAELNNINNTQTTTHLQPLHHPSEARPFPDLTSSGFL
Description: (§1) Photoaffinity labeling using the ligand, [^125I]-2-azido-3-iodo-7,8-dibromodibenzo-p-dioxin (specific activity=0.5 μCiμl), was carried out in 50 μl reactions in MENG buffer. Samples were incubated with 0.25 μCi of ligand (0.1 pmoles) ±100 nM β-naphthoflavone 30 minutes at room temperature, cooled on ice and incubated with one fifth of charcoal/gelatin (3%/0.3% w/v) for 30 minutes on ice. The charocal/gelatin was subjected to centrifugation at 14,000 rpm for 5 minutes at 4° C. and the supernatant was irradiated with ultraviolet light at 0.8 J/cm2 followed by addition of 300 mM β-mercaptoethanol. Acetone precipitates were resuspended in 1×Laemmli sample buffer and subjected to 7.5% SDS-PAGE and autoradiograph as described in Sambrook, J., Fritsch, E. F., Maniatis, T., Molecular Cloning: A Laboratory Manual/second edition (Cold Spring Harbor Laboratory Press, 1989).
(§2) Photoaffinity labeling of murine (muAhR) and human (huAhR) Ah-receptors expressed in COS-1 cells. […]
(§3) Experiments were carried out using the TNT Coupled Reticulocyte Lysate System (PROMEGA). […] The efficiency of expression was analyzed in parallel experiments utilizing ^35S-methionine labeling and autoradiography and Western blot analysis using affinity-purified goat antibody raised against an N-terminal peptide derived from the murine Ah-receptor. […]

[5] = target: T3, murine Ah-receptor (Mus musculus, UniProt P30561); experiment: as above; assay type: binding; conditions: excess of β-naphthoflavone; murine cDNA expressed in COS-1 cells, cytosolic fraction
T3 construct: The resulting full length murine Ah-receptor clone was then subcloned into the SpeI and HindIII sites of pSV-Sport1; expressed in transfected cells; host or cells: COS-1 cells electroporated with pmuAhR (cytosol); also in vitro translation in TNT rabbit reticulocyte lysate (Promega)
T3 sequence (P30561 10-805 S74T/M324I/F348L/P471L/N533S/M589L/T758A limits assumed): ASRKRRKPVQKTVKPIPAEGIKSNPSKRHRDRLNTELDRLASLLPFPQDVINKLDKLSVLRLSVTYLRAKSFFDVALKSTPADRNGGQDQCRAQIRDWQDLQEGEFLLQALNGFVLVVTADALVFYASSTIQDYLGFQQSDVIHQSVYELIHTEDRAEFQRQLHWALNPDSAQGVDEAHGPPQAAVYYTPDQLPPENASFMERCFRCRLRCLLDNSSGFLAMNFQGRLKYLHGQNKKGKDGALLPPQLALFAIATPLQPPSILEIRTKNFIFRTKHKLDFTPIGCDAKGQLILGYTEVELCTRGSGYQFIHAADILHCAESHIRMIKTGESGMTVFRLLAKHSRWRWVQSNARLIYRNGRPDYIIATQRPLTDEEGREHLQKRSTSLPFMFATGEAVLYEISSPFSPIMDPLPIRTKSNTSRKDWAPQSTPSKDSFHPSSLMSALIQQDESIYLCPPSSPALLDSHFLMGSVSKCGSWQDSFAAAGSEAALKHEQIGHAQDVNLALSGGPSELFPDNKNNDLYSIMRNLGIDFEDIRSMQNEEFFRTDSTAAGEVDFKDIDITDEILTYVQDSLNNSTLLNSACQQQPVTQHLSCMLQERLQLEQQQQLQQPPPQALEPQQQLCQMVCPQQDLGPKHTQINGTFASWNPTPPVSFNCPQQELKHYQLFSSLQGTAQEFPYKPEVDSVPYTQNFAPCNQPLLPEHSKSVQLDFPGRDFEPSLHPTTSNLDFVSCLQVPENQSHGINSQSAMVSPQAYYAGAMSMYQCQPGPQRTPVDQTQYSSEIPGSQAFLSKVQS
Description: as §1, §2, §3

T1 sequence (P0A7C2+P30561 fused with the stated changes): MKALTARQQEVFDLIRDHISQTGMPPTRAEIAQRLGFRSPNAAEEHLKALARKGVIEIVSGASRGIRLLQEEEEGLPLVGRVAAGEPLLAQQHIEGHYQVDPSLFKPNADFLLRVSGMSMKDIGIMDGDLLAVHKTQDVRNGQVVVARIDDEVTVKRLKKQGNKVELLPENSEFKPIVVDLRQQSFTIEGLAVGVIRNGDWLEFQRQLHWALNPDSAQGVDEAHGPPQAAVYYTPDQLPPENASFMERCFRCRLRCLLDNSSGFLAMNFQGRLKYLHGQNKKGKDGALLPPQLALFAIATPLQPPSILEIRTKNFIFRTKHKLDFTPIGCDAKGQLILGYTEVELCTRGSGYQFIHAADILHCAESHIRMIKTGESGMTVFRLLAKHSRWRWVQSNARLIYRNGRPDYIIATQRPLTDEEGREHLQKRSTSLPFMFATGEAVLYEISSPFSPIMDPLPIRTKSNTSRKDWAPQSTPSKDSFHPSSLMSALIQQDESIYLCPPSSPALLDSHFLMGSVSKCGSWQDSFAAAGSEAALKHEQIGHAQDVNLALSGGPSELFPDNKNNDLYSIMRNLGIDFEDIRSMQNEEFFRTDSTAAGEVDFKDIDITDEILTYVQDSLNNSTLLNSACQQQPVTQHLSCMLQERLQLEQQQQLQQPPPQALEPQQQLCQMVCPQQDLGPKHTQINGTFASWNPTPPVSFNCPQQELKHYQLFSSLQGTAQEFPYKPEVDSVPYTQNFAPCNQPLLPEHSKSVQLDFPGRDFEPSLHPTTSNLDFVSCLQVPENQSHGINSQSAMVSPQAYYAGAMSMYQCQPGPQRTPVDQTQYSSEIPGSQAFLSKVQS
Chain of full-length human AHR (P27540 1-774 isoform P27540-2 partner, one chain of several): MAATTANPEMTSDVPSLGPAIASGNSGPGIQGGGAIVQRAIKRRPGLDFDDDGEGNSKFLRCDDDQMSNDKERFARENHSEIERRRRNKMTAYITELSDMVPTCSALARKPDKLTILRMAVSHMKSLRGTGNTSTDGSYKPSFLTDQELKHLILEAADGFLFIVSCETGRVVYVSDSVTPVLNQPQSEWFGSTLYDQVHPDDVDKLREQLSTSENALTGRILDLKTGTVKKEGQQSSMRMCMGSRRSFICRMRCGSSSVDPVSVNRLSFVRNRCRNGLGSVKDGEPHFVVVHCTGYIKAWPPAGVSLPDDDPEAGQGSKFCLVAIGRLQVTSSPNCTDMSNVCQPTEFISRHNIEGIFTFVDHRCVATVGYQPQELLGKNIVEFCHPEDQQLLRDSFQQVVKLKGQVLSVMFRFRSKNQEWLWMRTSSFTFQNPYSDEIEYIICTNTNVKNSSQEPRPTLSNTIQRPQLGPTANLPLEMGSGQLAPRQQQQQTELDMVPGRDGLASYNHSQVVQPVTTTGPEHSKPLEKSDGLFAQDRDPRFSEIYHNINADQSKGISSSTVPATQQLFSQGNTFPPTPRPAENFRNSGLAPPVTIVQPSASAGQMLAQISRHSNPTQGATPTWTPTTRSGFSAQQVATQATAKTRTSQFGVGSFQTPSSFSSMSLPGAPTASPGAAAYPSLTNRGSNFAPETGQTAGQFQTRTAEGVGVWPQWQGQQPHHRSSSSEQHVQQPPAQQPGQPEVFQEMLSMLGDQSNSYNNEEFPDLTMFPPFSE

**Q.** Which “induction of lac Z activity over background” value [1] does the source give for `O=c1cc(-c2ccccc2)oc2c1ccc1ccccc12` [αNF, α-naphthoflavone] here?
**A.** 90 fold

**Q.** And the pEC50 [2]?
**A.** 6.10

**Q.** What about the “activation of the AHR over background (β-galactosidase)” value [2] of the same compound?
**A.** 12 fold

**Q.** What about the pKd [3] of the same compound?
**A.** 7.54

**Q.** With `O=c1cc(-c2ccccc2)oc2ccc3ccccc3c12` [βNF, β-naphthoflavone] as the compound, how does the “induction of lac Z activity over background” value [1] read?
**A.** 90 fold

**Q.** What about the pEC50 ([1]; yeast GRS4 with pEGAHRNΔ166 and pSH18-34, agonist 16-18 hours, read-out: EC50 (LexA operator lacZ reporter)) of the same compound?
**A.** 7.21

**Q.** What about the “inhibition of photoaffinity labeling of the receptor” value [4] of the same compound?
**A.** inhibited the labeling of the receptors

**Q.** What about the “inhibition of photoaffinity labeling of the receptor” value [5] of the same compound?
**A.** inhibited the labeling of the receptors

**Q.** And the pEC50 [2]?
**A.** 7.10

**Q.** And the “activation of the AHR over background (β-galactosidase)” value [2]?
**A.** 12 fold
